Usually IC50 stands for the point on the concentration scale where inhibition reaches its midpoint.

Values after ≈ are worked out from the molar mass of the structure shown. “Also recorded” adds a separate entry of the source. Like-named read-outs stand apart in the source and are kept apart here.

In data set [1] the test system is B. anthracis Sterne (pXO1+, pXO2−). As to the kind of experiment: microbe, parasite or virus in culture. It is filed as cell-based. The following applies: Bacillus anthracis.
The subject of data set [2] is S. flexneri. The data set is described as follows: microbe, parasite or virus in culture. In kind it is cell-based. The following applies: Shigella flexneri.
Data set [3] deals with trans-translation. In kind it is biochemical, E. coli. As to conditions: 10 μM final concentration; DHFR template lacking the stop codon; tagging efficiency vs no inhibitor control.
The test system of data set [4] is B. subtilis. As to the kind of experiment: microbe, parasite or virus in culture. In kind it is cell-based. As to conditions: Bacillus subtilis, 24 h, read-out: MIC B. subtilis.
Data set [5] has as its system B. anthracis Sterne. It is filed as cell-based.
The subject of data set [6] is S. aureus methicillin-susceptible strain, Newman. In kind it is cell-based.
The test system of data set [7] is MRSA strain, Sanger 252. It is filed as cell-based, S. aureus.
In data set [8] the test system is S. flexneri. As to the kind of experiment: microbe, parasite or virus in culture. In kind it is cell-based. As to conditions: Shigella flexneri, 24 h, read-out: IC50 S. flexneri.
The subject of data set [9] is B. anthracis ΔclpX+pclpX. The data set is described as follows: microbe, parasite or virus in culture. In kind it is cell-based. As to conditions: Bacillus anthracis, 24 h, read-out: IC50 ΔclpX + pclpX.
Data set [10] has as its system WT+pUTE29 (empty vector). The data set is described as follows: microbe, parasite or virus in culture. In kind it is cell-based, B. anthracis. The following applies: Bacillus anthracis, 24 h, read-out: IC50 WT + pUTE29.
In data set [11] the test system is ΔclpX+pUTE29. As to the kind of experiment: microbe, parasite or virus in culture. In kind it is cell-based, B. anthracis. The following applies: Bacillus anthracis, 24 h, read-out: IC50 ΔclpX + pUTE29.
Data set [12] concerns B. anthracis ΔclpX. The data set is described as follows: microbe, parasite or virus in culture. The following applies: Bacillus anthracis, 24 h, read-out: IC50 ΔclpX. In kind it is cell-based.
The subject of data set [13] is E. coli TolC mutant. As to the kind of experiment: microbe, parasite or virus in culture. In kind it is cell-based. As to conditions: Escherichia coli, read-out: MIC E. coil TolC.
Data set [14] deals with B. anthracis spores. It is filed as cell-based.
Data set [15] relates to WT B. anthracis Sterne. The data set is described as follows: microbe, parasite or virus in culture. As to conditions: Bacillus anthracis, 24 h, read-out: IC50 WT B. anthracis. In kind it is cell-based.
Data set [16] has as its system Auto-luminescent M. tuberculosis (LuxTB). As to the kind of experiment: microbe, parasite or virus in culture. The following applies: Mycobacterium tuberculosis, read-out: IC50 M. tuberculosis. In kind it is cell-based.
Data set [17] deals with Wild-type M. tuberculosis. The data set is described as follows: microbe, parasite or virus in culture. It is filed as cell-based. The following applies: Mycobacterium tuberculosis, read-out: MIC against M. tuberculosis.
Data set [18] relates to HeLa cells. As to conditions: human.
Data set [19] has as its system B. anthracis. In kind it is cell-based.
Data set [20] has as its system Mycobacterium smegmatis. The data set is described as follows: microbe, parasite or virus in culture. In kind it is cell-based. As to conditions: Mycolicibacterium smegmatis, read-out: MIC Mycobacterium smegmatis.
Setting [21] is: 24 h, read-out: MIC B. anthracis.
Where [22] appears, read: 24 h, read-out: MIC S. flexneri.
[23] abbreviates: read-out: MIC Bacillus anthracis.

On to `CCCn1nnnc1NC(=O)c1ccccc1` [Compound 1, N-(1-propyl-1H-tetrazol-5-y1)benzamide], for which the MIC in data set [1] (read-out: MIC B. anthracis) and in [2] (read-out: MIC S. flexneri) was above 500 µM in each case.
As to `CCCn1nnnc1NC(=O)C1CCCCC1` [Compound 7, N-(1-propyl-1H-tetrazol-5-yl)cyclohexane-carboxamide], the MIC in data set [1] (read-out: MIC B. anthracis) and in data set [2] (read-out: MIC S. flexneri) was above 500 µM each time.
Consider `O=C(Nc1ccncc1)c1cccc(Cl)c1` [Compound 11, 3-chloro-N-(pyridin-4-yl)benzamide], for which the MIC in [1] (read-out: MIC B. anthracis) is above 500 µM; in data set [2] (read-out: MIC S. flexneri) it was 500 µM (≈ 116 µg/mL). For the same compound, in data set [3], the “% inhibition in vitro” value came to 57.9%.
Take `O=C(NC1CCCC1)c1cccc(Cl)c1` [Compound 13, 3-chloro-N-cyclopentylbenzamide]: the MIC in [1] (read-out: MIC B. anthracis) and in data set [2] (read-out: MIC S. flexneri) was above 500 µM each time. Further, the “% inhibition in vitro” value in data set [3] turned out to be 71.6%.
With `NCCn1nnnc1NC(=O)c1cccc(Cl)c1` [Compound D, N-(1-(2-aminoethyl)-1H-tetrazol-5-yl)-3-chlorobenzamide], the MIC in [4], in data set [1] (setting [21]) and in [2] (setting [22]) was above 200 µM in each case. Moreover, in data set [3], the “% inhibition in vitro” value worked out at 52.3%.
Consider `CCCCCCCCCC(=O)N[C@@H](Cc1c[nH]c2ccccc12)C(=O)N[C@H](CC(N)=O)C(=O)N[C@@H](CC(=O)O)C(=O)N[C@@H]1C(=O)NCC(=O)N[C@@H](CCCN)C(=O)N[C@@H](CC(=O)O)C(=O)N[C@H](C)C(=O)N[C@@H](CC(=O)O)C(=O)NCC(=O)N[C@H](CO)C(=O)N[C@@H]([C@H](C)CC(=O)O)C(=O)N[C@@H](CC(=O)c2ccccc2N)C(=O)O[C@@H]1C` [daptomycin], for which the “Effect on parental and complemented B. anthracis strains” value in data set [5] is “not significantly affected”.
`O=C(Nc1ccccc1)c1cccc(Cl)c1` [Compound 10, 3-chloro-N-phenylbenzamide]: the MIC in data set [1] (read-out: MIC B. anthracis) and in [2] (read-out: MIC S. flexneri) was above 500 µM throughout. The “% inhibition in vitro” value in data set [3] is listed as 68.1%.
Turning to `CCCn1nnnc1NC(=O)c1cccc(Br)c1` [Compound 2, 3-bromo-N-(1-propyl-1H-tetrazol-5-yl)benzamide], the MIC in data set [1] (read-out: MIC B. anthracis) is above 500 µM; in data set [2] (read-out: MIC S. flexneri), 250 µM (≈ 77.5 µg/mL).
As for `CS(=O)(=O)NCCn1nnnc1NC(=O)c1cccc(Cl)c1` [Compound 14], the “% inhibition in vitro” value in data set [3] was 47.8%.
Turning to `O=C(Nc1nnnn1CCNS(=O)(=O)c1ccccc1)c1cccc(Cl)c1` [Compound 16, 3-chloro-N-(1-(2-(phenylsulfonamido)ethyl)-1H-tetrazol-5-yl)benzamide], in [1] (setting [23]), the MIC came to 400 µM (≈ 163 µg/mL). The “% inhibition in vitro” value in [3] is 37.0%.
Take `CCCn1nnnc1NC(=O)C1CCCC1` [Compound 8, N-(1-propyl-1H-tetrazol-5-yl)cyclopentane-carboxamide]: the MIC in data set [1] (read-out: MIC B. anthracis) and in data set [2] (read-out: MIC S. flexneri) was above 500 µM each time.
Turning to `O=C(Nc1nnn[nH]1)c1cccc(Cl)c1` [Compound 9], the “% inhibition in vitro” value in data set [3] is listed as 78.9%.
`CCCn1nnnc1NC(=O)c1ccc(N(CC)CC)cc1` [Compound 5, 4-(diethylamino)-N-(1-propyl-1H-tetrazol-5-yl)-benzamide]: the MIC in data set [1] (read-out: MIC B. anthracis) and in data set [2] (read-out: MIC S. flexneri) was above 500 µM in each case.
For LL-37, the “Survival of B. anthracis Sterne vs vehicle control” value in data set [5] is on record as “negligible effect on survival”. Besides, the “Survival of S. aureus Newman” value in data set [6] was “only slightly reduced”. For the same compound, the “Survival of MRSA Sanger 252” value in data set [7] is “only slightly reduced”.
As for `CN(C)c1cccc2c(S(=O)(=O)NCCn3nnnc3NC(=O)c3cccc(Cl)c3)cccc12` [Dansyl-F2, 3-chloro-N-(1-(2-(5-(dimethylamino)naphthalene-1-sulfonamido)ethyl)-1H-tetrazol-5-yl)benzamide], the IC50 in data set [8] is above 200 µM; in data set [9], 6.22 µM; in data set [10] it was 9.88 µM; in data set [11] it was 6.28 µM; in data set [12], 5.93 µM; in [15] it was 5.28 µM. For the same compound, the IC50 in data set [16] (48 h) turned out to be 181 µM; in data set [16] (72 h) it was 100 µM; in [16] (96 h), 96.4 µM. In addition, the MIC was 13.3 µM (≈ 6.65 µg/mL) in data set [4]; 25 µM (≈ 12.5 µg/mL) in [13]; 7.8 µM (≈ 3.9 µg/mL) in data set [1] (setting [21]); 5.3 µM (≈ 2.65 µg/mL) in [1] (setting [23]); above 200 µM in data set [2] (setting [22]); around 50 µM (≈ 25 µg/mL) in data set [17]. Also, the “Vegetative cells from spores (inhibition of spore germination)” value in data set [14] is on record as “No vegetative cells were observed”. The “% inhibition in vitro” value in [3] was determined as 89.1%.
With `CCCn1nnnc1NC(=O)c1ccc(N(C)C)cc1` [Compound 4, 4-(dimethylamino)-N-(1-propyl-1H-tetrazol-5-yl)benzamide], the MIC in data set [1] (read-out: MIC B. anthracis) and in [2] (read-out: MIC S. flexneri) was above 500 µM in each case. For the same compound, the “% inhibition in vitro” value in data set [3] was determined as 74.9%.
Turning to `O=C(NC1CCCCC1)c1cccc(Cl)c1` [Compound 12, 3-chloro-N-cyclohexylbenzamide], the MIC in data set [1] (read-out: MIC B. anthracis) and in data set [2] (read-out: MIC S. flexneri) was above 500 µM in each case. The “% inhibition in vitro” value in data set [3] was 44.6%.
Take `CCCn1nnnc1NC(=O)c1cccc(Cl)c1` [Compound F2, reference compound]: the IC50 in data set [8] turned out to be 5.95 µM; in [9] it was 14.8 µM; in data set [10], 27.5 µM; in [11] it was 22.3 µM; in data set [12] it was 27 µM; in data set [15], 17.6 µM. Further, the IC50 in [16] (48 h) was 292 µM; in [16] (72 h), 226 µM; in [16] (96 h), 115 µM. For the same compound, the “Dose at which cytotoxicity in mammalian cells is seen” value in data set [18] lay in the range of 500 to 1000 µM. Moreover, the MIC came to 26.1 µM (≈ 6.93 µg/mL) in data set [4]; 12.5 µM (≈ 3.32 µg/mL) in [13]; 31.2 µM (≈ 8.29 µg/mL) in data set [1] (setting [21]); 25 µM (≈ 6.64 µg/mL) in data set [1] (read-out: MIC B. anthracis); 25 µM (≈ 6.64 µg/mL) in [1] (setting [23]); 25 µM (≈ 6.64 µg/mL) in [20]. Besides, the MIC in [2] (setting [22]) amounted to 7.8 µM (≈ 2.07 µg/mL); in [2] (read-out: MIC S. flexneri), 3.13 µM (≈ 0.832 µg/mL); in [2] (read-out: MIC Shigella flexneri), 3.1 µM (≈ 0.824 µg/mL). For the same compound, the “Killing of B. anthracis in human whole blood vs vehicle control” value in [19] was “significantly enhanced killing”. In addition, the “Bacterial survival (cfu/ml) of B. anthracis Sterne” value in data set [5] is “significantly reduced bacterial survival in a synergistic manner”. Moreover, the “Direct antimicrobial activity against B. anthracis Sterne” value in data set [5] is on record as “direct antimicrobial activity”. In data set [5], the “Survival of B. anthracis Sterne vs vehicle control” value was “negligible effect on survival”. The “Vegetative cells from spores (inhibition of spore germination)” value in data set [14] is listed as “No vegetative cells were observed”. In [3], the “% inhibition in vitro” value is 88.0%. In addition, in data set [6], the “Survival of S. aureus Newman” value is reported as “only slightly reduced; also recorded: No colonies were recovered”. In addition, the “Bacterial survival (cfu/ml) of MRSA” value in data set [7] is reported as “significantly reduced bacterial survival in a synergistic manner”. Further, in data set [7], the “Direct antimicrobial activity against MRSA Sanger 252” value is “direct antimicrobial activity”. Also, the “Reduction of survival of MRSA Sanger 252” value in data set [7] is given as “at least 10,000 fold”. For the same compound, the “Survival of MRSA Sanger 252” value in data set [7] is given as “only slightly reduced”.
For the compound `CCCn1nnnc1NC(=O)c1cccc(F)c1` [Compound 3, 3-fluoro-N-(1-propyl-1H-tetrazol-5-yl)benzamide], the MIC in [1] (read-out: MIC B. anthracis) and in data set [2] (read-out: MIC S. flexneri) was above 500 µM throughout.

Values taken from patent US8975288B2 (priority 2013, dated 2015).
